According to patent US12496281B2, “Compounds for prevention and treatment of hemorrhage and vasculature instability” (Abrexa Pharmaceuticals, Inc., priority 2020, dated 2025):

Assays:
[1] = system: suture MCAO-induced ischemia followed by reperfusion; assay: J147 dose-response, 2-hour suture MCAO followed by reperfusion, 72 h (Example 3); format: in vivo, SD rats
Description: Objective: […] Methods: […] J147 compound (1.0, 10, 30 mg/kg) and vehicle were administered at 2 hours after onset of ischemia (FIG. 5). Bederson score was examined prior to the sacrifice at 72 h after stroke. Infarct volumes in TTC-stained brain coronal sections were measured.

[2] = system: suture-type transient middle cerebral artery occlusion (MCAO) model; assay: Suture transient MCAO model, 2 h ischemia, reperfusion 24 h (Example 1); format: in vivo, Sprague Dawley rats; conditions: for infarct volume (TTC staining) relative to placebo: 24 h after reperfusion
Description: In this model, J147 was administered i.v. at doses of 1 mg/kg, 10 mg/kg and 30 mg/kg of total body weight immediately after reperfusion (i.e., about 2 hours after ischemia onset). […] Maximum volume (iv., bolus)=5 ml/kg. (ip., bolus)=10 ml/kg. […] The Bederson scale is a global neurological assessment that was developed to measure neurological impairments following stroke. Tests include forelimb flexion, resistance to lateral push and circling behavior. In this case, a Bederson grading scale of 0-5 was used to assess behavioral deficits after reperfusion. This scoring scale is a simple way to reveal basic neurological deficits.

eMCAO, 4 μm blood clot = assay: J147 alone in embolic MCAO (eMCAO) model without tPA or reperfusion (Example 5); format: in vivo, SD rats; conditions: J147 alone 1 mg/ml or 10 mg/ml i.v., or 30 mg/ml i.p. two hours after stroke onset; no tPA, no reperfusion; 24 hours after stroke
Description: In this example, an eMCAO experiment was performed to determine if J147 alone (i.e., without administration of TPA or other thrombolytic intervention) provided any therapeutic benefit for stroke in the absence of reperfusion caused by TPA.

[3] = system: platelet P-selectin (CD62P); assay: Flow cytometry of platelet activation (P-selectin) in whole blood after stroke; format: in vivo; conditions: whole blood at 24 hours after ischemia onset; vs saline-treated stroke rats
Description: (§1) Elevated platelet activation and platelet-leukocyte interaction contribute importantly to pro-inflammatory and thrombotic events during ischemia-reperfusion injury after stroke. We used flow cytometry to analyze platelet activation and platelet-leukocyte aggregates in whole blood at 24 hours after ischemia onset (FIG. 9A).
(§2) Methods: Blood was drawn into a heparinized capillary tube via the retro-orbital plexus at 24 h after stroke. Whole blood was diluted 1:10 with Flow Cytometry Staining Buffer (eBioscience) containing rat Fc block anti-rat CD32. For evaluation of platelet activation, sample was co-stained with the FITC mouse anti-rat CD42d (1:200, RPM.4) for platelets and PE/Cy7 mouse anti-rat CD62P (1:100, RMP-1) for P-selectin expression. For detection of platelet-leukocyte aggregates (PLA) formation, samples were co-stained with FITC mouse anti-rat CD42d (1:200, RPM.4), PE mouse anti-rat granulocytes (1:100, RP-1), APC mouse anti-rat CD11b (1:50, WT.5) and PE/Cy7 mouse anti-rat CD45 (1:100, OX-1). Isotype-matched control antibodies were used to differentiate non-specific background signal from specific antibody signals. The samples were analyzed on the BD Accuri™ C6 flow cytometer.

microglia (Iba-1) = assay: Immunostaining of microglia (Iba-1) expansion after thromboembolic stroke; format: in vivo, rats; conditions: poststroke; delayed tPA alone or with J147; n=3 animals per group
Description: (§3) Methods: At the indicated time point, animals were euthanized with CO2 and transcardially perfused with 200 mL ice-cold PBS (0.01 M, pH 7.4) followed by 4% paraformaldehyde (PFA). The brains were removed and post-fixed in 4% PFA solution for overnight at 4° C. Brain samples were then cryoprotected by immersion in 10%, 20%, and 30% gradient sucrose solutions for 48 h at 4° C. respectively. After that, the brains were embedded in optimal cutting temperature (OCT) compound. Coronal sections (15 um) were cut at 0.4 to 1.4 mm posterior to bragma using a cryostat and mounted on positively charged slides. Every twentieth coronal section for a total five sections was used for immunohistochemistry. The primary antibodies: IBa-1 (1:200, Wako), MPO (1:200, Abcam), MMP9 (1:100, R&D), EBA (endothelial barrier antigen, a marker for endothelium in the vessels, 1:500, Covance), fibrinogen (1:200, Dako), thrombocyte (1:200, lifespan) and PAI-1 (1:200, Novus Biologicals) were used. […]
(§4) For quantification, the number of immunoreactive vessels were counted in the ischemic boundary zone. All immunostaining data was analyzed by an investigator blinded to experimental groups using Image Pro plus software (version 5.1, Media Cybernetics, Inc.) and data are presented as the density of immunoreactive vessels relative to the imaged area (mm2) as described. Data were expressed as mean±standard error of the mean (SEM). […]

MMP-9 = assay: Double immunohistochemistry for MMP-9 expression in the brain after thromboembolic stroke; format: in vivo, rats; conditions: 24 hours after stroke; tPA at 4 h alone or with J147; n=3 animals per group
Description: MMPs, in particular MMP-9, play a critical role in the stroke-associated blood-brain barrier (BBB) disruption, hemorrhagic transformation and neuroinflammation after stroke. Double immunohistochemistry was performed to determine MMP-9 expression in the brain at 24 hours after stroke (FIG. 7A).
Methods: At the indicated time point, animals were euthanized with CO2 and transcardially perfused with 200 mL ice-cold PBS (0.01 M, pH 7.4) followed by 4% paraformaldehyde (PFA). The brains were removed and post-fixed in 4% PFA solution for overnight at 4° C. Brain samples were then cryoprotected by immersion in 10%, 20%, and 30% gradient sucrose solutions for 48 h at 4° C. respectively. After that, the brains were embedded in optimal cutting temperature (OCT) compound. Coronal sections (15 um) were cut at 0.4 to 1.4 mm posterior to bragma using a cryostat and mounted on positively charged slides. […]
as §4

[4] = system: thromboembolic middle cerebral artery occlusion (MCAO); assay: J147+tPA expanded study: infarct volume, intracerebral hemorrhage, mortality (Example 4A); format: in vivo, SD rats
Description: Objective: To determine whether J147 can prevent tPA-associated brain hemorrhage and extend the treatment time window of tPA in a clinically relevant thromboembolic stroke model in rats. • J147 compound: Stock solution: 60 mg/ml DMSO, in 60 ul/vial, stored at −20° C. • Working solution: 3 mg/ml in 5% DMSO, 70% PEG200 and 25% normal saline, prepared prior to injection. • One vial stock solution was warmed at 37° C. and mixed with 1140 ul sterilized solution (PEG200: saline, 2.8:1). • Recombinant human tPA (Alteplase, 2.2 mg/vial): Reconstituted with 1.1 ml water (2 mg/ml). 10 mg/kg, 10% bonus injection, 90%30 min. via mini pump. A. Infarct Volume and Intracerebral Hemorrhage
Methods: Male SD rats (280-300 g) were subjected to thromboembolic middle cerebral artery occlusion (MCAO) and treated with saline at 4 hours, tPA (tissue-type plasminogen activator; 10 mg/kg, IV) at 4 hours, and combined J147 (10 mg/kg, IV) plus tPA at 4 hours after onset of ischemia. Bederson score was examined prior to the sacrifice at 72 h after stroke. Infarct volumes, brain hemorrhage, and animal mortality were measured.

fibrin/fibrinogen = assay: Double immunofluorescence of intravascular fibrin/fibrinogen deposition in brain microvessels; format: in vivo; conditions: stroke rats; delayed tPA alone or with J147
Description: as §3, §4

platelets = assay: Double immunofluorescence of platelet (thrombocyte) accumulation in brain microvessels; format: in vivo; conditions: stroke rats; delayed tPA alone or with J147
Description: as §3, §4

[5] = system: neutrophil (MPO) infiltration; assay: Immunostaining of brain neutrophil (MPO) infiltration after thromboembolic stroke; format: in vivo, rats; conditions: poststroke; delayed tPA alone or with J147; n=3 animals per group
Description: as §3, §4

[6] = system: platelet-leukocyte aggregates; assay: Flow cytometry of platelet-leukocyte aggregates in whole blood after stroke; format: in vivo; conditions: whole blood at 24 hours after ischemia onset; vs saline-treated stroke rats; n=3 rats per group
Description: as §1, §2

[7] = J147 1.0, 10, 30 mg/kg at 2 hours after onset of ischemia, 72 h after stroke, dose-dependent, vs vehicle
[8] = tPA 10 mg/kg IV at 4 hours, alone or with J147 10 mg/kg IV, 72 h after stroke

## COc1cccc(/C=N/N(C(=O)C(F)(F)F)c2ccc(C)cc2C)c1 [Compound J147]
[1]; [7]
  infarct volumes: significantly reduced
  neurological deficit (Bederson score): significantly reduced
[1]; treatment of acute ischemic stroke in rats, doses tested 1.0, 10, 30 mg/kg
  effective optimal dose: 10 mg/kg
[2]; 1 mg/kg J147 iv
  infarct volume (TTC staining) relative to placebo: insignificant reduction
[2]; 10 mg/kg J147 iv
  infarct volume (TTC staining) relative to placebo: large reduction
[2]; J147 intraperitoneally
  infarct volume (TTC staining) relative to placebo: modest reduction
[2]; iv, immediately after reperfusion, doses tested 1, 10 and 30 mg/kg
  optimal effective dose: 10 mg/kg
eMCAO, 4 μm blood clot
  protection from stroke (infarct volume, TTC staining): fails to provide any significant protection

## tPA: Recombinant human tPA (Alteplase), tissue-type plasminogen activator; thrombolytic approved for the treatment of stroke
[3]
  platelet activation (platelet P-selectin expression): no additional effect
Microglia (Iba-1)
  microglia expansion (number of Iba-1-positive cells): no significant effect
MMP-9
  MMP-9 expression on individual cells and brain microvessels: further increased
[4]; [8]
  brain hemorrhage / hemorrhagic transformation: worsened
  brain infarction / infarct volume: did not decrease
[4]; treatment at 4 h after onset of ischemia, log-rank test, saline 25%
  mortality rate: 32%
[4]; treatment at 4 h after onset of ischemia, tPA n = 22, J147 plus tPA n = 17, saline 3 of 12
  Death (number of rats): 7
fibrin/fibrinogen
  fibrin/fibrinogen deposited in downstream microvessels: markedly increased
platelets
  platelets deposited in downstream microvessels: markedly increased
[5]
  neutrophil (MPO positive cells) infiltration into the brain parenchyma: further augmented
[6]
  platelet-granulocyte (platelet-neutrophil) aggregates: no additional effect
